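The compound was tested at five concentrations on cells cultured in 96-well plates, with a 48-hour exposure period. GI50 is the concentration that inhibits growth by half.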 The source made the active and inactive calls. Cut-off read from the data, not from the text of the source: active = GI50 up to about 1.1 µM and inactive = higher. Bounds are passed on as bounds.

Here are results for 17 compounds from ChEMBL document CHEMBL1201862, “PubChem BioAssay data set” (2004).

Assay in all cases: DTP human tumour cell line panel, 48 h
In assay [1] the test system is KM-20L2.
Assay [2] deals with DLD-1.
For assay [3], the system named is RXF 631.
For assay [4], the system named is 786-0.
In assay [5] the test system is DU-145.
Assay [6] relates to PC-3.
Assay [7] concerns NCI/ADR-RES.
Assay [8] deals with MCF7.
In assay [9] the test system is MDA-N.

As to `N=S(=O)(c1ccccc1)c1ccccc1[N+](=O)[O-]` (stereo unspecified), the GI50 in assay [1], in assay [2], in [3] and in assay [4] was > 100 µM (inactive) in each case.

In the case of `CN1CN(c2ccccc2)C2(CCNCC2)C1=O`, the GI50 in assay [5], in assay [6], in [7], in assay [8], in [9] and in assay [4] was > 100 µM (inactive) each time.

Consider `N#Cc1ccc(C2Oc3ccc(Cl)cc3C=C2[N+](=O)[O-])cc1` (stereo unspecified), for which the GI50 in assay [5] is 2.34 µM (inactive); in assay [6], 1.38 µM (inactive); in [8], 1.4 µM (inactive); in assay [9], 1.53 µM (inactive).

Consider `N#C[C@H](OC1OC(COC2OC(CO)C(O)C(O)C2O)C(O)C(O)C1O)c1ccccc1` (stereo partly specified), for which the GI50 in assay [7], in assay [8], in assay [1] and in [2] was > 250 µM (inactive) each time.

With `C1CSCCSCSCCS1`, the GI50 in [5], in assay [6], in assay [7], in assay [8] and in assay [9] was > 100 µM (inactive) each time.

As to `COc1ccc(-c2nc3ccc([N+](=O)[O-])cc3c(=O)[nH]2)cc1`, the GI50 in assay [7] is 34 µM (inactive); in assay [8], 46.5 µM (inactive); in [1], > 100 µM (inactive); in assay [2], 88.3 µM (inactive).

With `O=c1cccccc1NCCCCCCCCNc1cccccc1=O`, the GI50 was > 100 µM (inactive) in assay [1], > 100 µM (inactive) in [2], 1.74 µM (inactive) in assay [3] and > 100 µM (inactive) in assay [4].

`CC1CC[P+](c2ccccc2)(c2ccccc2)c2c1ccc1ccccc21` (stereo unspecified): the concentration for 50% growth inhibition (GI50) in [6] is 0.948 µM (active); in assay [7], > 100 µM (inactive); in assay [8], 2.26 µM (inactive); in assay [1], 2.5 µM (inactive); in assay [2], 3.74 µM (inactive).

For `CCCCNC(=O)N/C=C1\C(=O)Oc2ccccc2C1=O`, the GI50 in [1] was > 100 µM (inactive).

Take `Cn1c(=O)c(-c2ccccc2)c(N=[N+]=[N-])c2ccccc21`: the GI50 in [5] was > 100 µM (inactive); in [6], 22.3 µM (inactive); in [7], 28.4 µM (inactive); in assay [8] it was 54.3 µM (inactive); in [9], 72.8 µM (inactive).

As for `SC1=Nc2ccccc2-c2nc(-c3ccccc3)cc(-c3ccc(Br)cc3)c2C1`, the GI50 in [5] was 3.48 µM (inactive); in assay [6], 6.44 µM (inactive); in [7], 1.56 µM (inactive); in assay [8], 4.59 µM (inactive); in assay [9], 2.51 µM (inactive).

As to `CCOC(=O)N1C=NC23C(c4ccccc4)C(c4ccccc4)C12C(=O)N(C)C(=O)N3C` (stereo unspecified), the GI50 in assay [1], in [2] and in assay [4] was > 100 µM (inactive) throughout.

For the compound `Cc1ccc(NC(=O)OCC(COc2ccc(Cl)cc2)OC(=O)Nc2ccc(C)cc2)cc1` (stereo unspecified), the GI50 was 36.7 µM (inactive) in assay [1], 30.5 µM (inactive) in assay [2] and 11.5 µM (inactive) in assay [3].

In the case of `O=C1CCC23CC(C=CC=C12)n1c(=O)n(-c2ccccc2)c(=O)n13` (stereo unspecified), the GI50 was 38.5 µM (inactive) in assay [7], 10.9 µM (inactive) in [8] and 66.2 µM (inactive) in assay [2].

Take `C#Cc1cccc(N2C(=O)c3c(c(-c4ccccc4)c(-c4ccc(Cc5ccc(-c6c(-c7ccccc7)c7c(c(-c8ccccc8)c6-c6ccccc6)C(=O)N(c6cccc(C#C)c6)C7=O)cc5)cc4)c(-c4ccccc4)c3-c3ccccc3)C2=O)c1`: the GI50 in assay [1] is 16.2 µM (inactive); in assay [2] it was 32.9 µM (inactive); in [4], 30.2 µM (inactive).

On to `Cc1cc2c(cc1C)[n+]([O-])c(C#N)c(Cl)[n+]2[O-]`, for which the GI50 in assay [5] was 14.9 µM (inactive); in assay [6], 13.2 µM (inactive); in assay [7] it was 15.8 µM (inactive); in [8], 12.9 µM (inactive); in [9] it was 17.5 µM (inactive).

For the compound `CC(C)=CCC/C(C)=C/C=C/C(C)=C/C1C[C@@]2(C(O)O1)[C@H](CCCO)/C(=C(/C)C=O)CC[C@]2(C)O` (stereo partly specified), the figures for the GI50 in [1] and in [2] were 15.3 µM (inactive) and 16.4 µM (inactive), respectively.

By GI50 is commonly meant the concentration giving 50% growth inhibition.
